Structures are written as SMILES.

T1 sequence (Q9GZU1 whole entry): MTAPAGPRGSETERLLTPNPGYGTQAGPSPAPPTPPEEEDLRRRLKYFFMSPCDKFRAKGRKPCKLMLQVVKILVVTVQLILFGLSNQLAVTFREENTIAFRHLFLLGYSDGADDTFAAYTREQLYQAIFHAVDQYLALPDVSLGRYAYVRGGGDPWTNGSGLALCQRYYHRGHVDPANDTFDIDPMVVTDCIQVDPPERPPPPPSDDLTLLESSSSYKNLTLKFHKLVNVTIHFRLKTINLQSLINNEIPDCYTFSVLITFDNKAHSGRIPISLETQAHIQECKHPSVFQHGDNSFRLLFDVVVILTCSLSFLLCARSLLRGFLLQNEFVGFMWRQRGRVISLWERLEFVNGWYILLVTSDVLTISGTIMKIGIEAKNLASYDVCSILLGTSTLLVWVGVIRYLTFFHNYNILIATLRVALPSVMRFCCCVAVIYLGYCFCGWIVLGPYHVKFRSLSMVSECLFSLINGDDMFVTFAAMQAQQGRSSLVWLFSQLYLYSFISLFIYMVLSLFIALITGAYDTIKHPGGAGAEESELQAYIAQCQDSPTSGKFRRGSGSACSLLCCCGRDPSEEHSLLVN

The assay has as its target T1, hTRPML1 (Homo sapiens, UniProt Q9GZU1).
T1 construct: expressed in transfected cells
Description: Cellular TRPML1 assay (FLIPR, GCaMP6f calcium read-out). It is filed as cell-based. To be noted: HEK T-REx/GCaMP6f/TRPML1 cells, FLIPR TETRA, kinetic response over 300 seconds; read-out: hTRPML1 FLIPR pEC50 (converted). The procedure: Buffers and reagents • PBS (D-PBS without calcium and magnesium; EuroClone) • Trypsin (Trypsin 0.05%, EDTA 0.02% in PBS; EuroClone) • DMSO (Sigma) • Ca^2+ free Tyrode's buffer: in-house solution (130 mM NaCl, 5 mM KCl, 1 mM MgCl2, 5 mM NaHCO3, 20 mM HEPES in water at pH 7.4; sterile filtered). • Opti-MEM (Gibco) • Agonist: ML-SA1 (Sigma); stock: 60 mM in DMSO, stored at −20° C. • Blocker: ML-SI3 (in house synthesis); stock: 20 mM in DMSO, stored at −20° C.
Cell line • The final clone for the TRPML1 assay is HEK T-REx/GCaMP6f/TRPML1. • GCaMP6f is a genetically encoded calcium indicator that is stably expressed in this cell line and used as a fluorescent read-out.
Cells are seeded at 15000 cells/well either in 25 µl/well of growth medium or in 20 μl/well of Optimem+0.5% FBS without selection antibiotics. Twenty-four hours later, cells are assayed for the response to various compounds using the Ca^2+ sensitive GCaMP6f protein stably expressed in the cells as readout.
The experiment is performed in a 384-well format according to the following procedures for either Ca^2+ free or Optimem conditions: • Ca^2+ free condition (in absence of extracellular Ca^2+): • 24 h after seeding, pre-incubate the cells at room temperature for about 10′. • Then remove the culture medium and replace it with 20 μL of Ca^2+ free Tyrode's buffer. • Start the experiment at the FLIPR^TETRA by injecting 10 μL/w of 3× concentrated test compounds and controls in Ca^2+ free Tyrode's buffer. Monitor the kinetic response over a period of 300 seconds. • Final DMSO concentration: 0.5% • Optimem condition (in presence of extracellular Ca^2+): • 24 h after seeding, pre-incubate the cells at room temperature for about 10′. • Start the experiment at the FLIPR^TETRA by injecting 10 μL/w of 3× concentrated test compounds and controls in Ca^2+ free Tyrode's buffer. Monitor the kinetic response over a period of 300 seconds. • Final DMSO concentration: 0.5%
Data from FLIPR^TETRA measurements are analyzed with the Genedata Screener© software.
With `Cc1ccc(N2CCC(Oc3ccccn3)CC2)c(NS(=O)(=O)c2ccc(S(=O)(=O)N(C)C)cc2)c1` [Example 14, N^1,N^1-dimethyl-N^4-(5-methyl-2-(4-(pyridin-2-yloxy)piperidin-1-yl)phenyl)benzene-1,4-disulfonamide], the EC50 is less than 1 µM.
Next, `Cc1ccc(C)c(S(=O)(=O)Nc2ccccc2N2CCN(C(=O)OC(C)(C)C)CC2)c1` [Example 20, tert-butyl 4-(2-((2,5-dimethylphenyl)sulfonamido)phenyl)piperazine-1-carboxylate]: more than 3.16 µM.
Next, `CN(C)S(=O)(=O)c1ccc(S(=O)(=O)Nc2cccc(Cl)c2N2CCC(Oc3ccccn3)CC2)cc1` [Example 7, N^1-(3-chloro-2-(4-(pyridin-2-yloxy)piperidin-1-yl)phenyl)-N^4,N^4-dimethylbenzene-1,4-disulfonamide]: 1 to 3.16 µM; `CN(C)S(=O)(=O)c1ccc(S(=O)(=O)Nc2cc(Cl)ccc2N2CCC(Oc3ccccn3)CC2)cc1` [Example 13, N^1-(5-chloro-2-(4-(pyridin-2-yloxy)piperidin-1-yl)phenyl)-N^4,N^4-dimethylbenzene-1,4-disulfonamide]: 1 to 3.16 µM.
As for `CN(C)S(=O)(=O)c1ccc(S(=O)(=O)Nc2cccc(F)c2N2CCC(Oc3ncc(Cl)cc3F)CC2)cc1` [Example 45, N^1-(2-(4-((5-chloro-3-fluoropyridin-2-yl)oxy)piperidin-1-yl)-3-fluorophenyl)-N^4,N^4-dimethylbenzene-1,4-disulfonamide], the figure is less than 1 µM.
`COCCN(C(=O)c1ccc(S(=O)(=O)N(C)C)cc1)c1ccccc1N1CCC(Oc2ccccc2)CC1` [Example 3, 4-(N,N-dimethylsulfamoyl)-N-(2-methoxyethyl)-N-(2-(4-phenoxypiperidin-1-yl)phenyl)benzamide]: the EC50 is more than 3.16 µM.
Next, `CN(C)S(=O)(=O)c1ccc(S(=O)(=O)Nc2cccc(F)c2N2CCC(Oc3ccc(C(F)(F)F)cn3)CC2)cc1` [Example 43, N^1-(3-fluoro-2-(4-((5-(trifluoromethyl)pyridin-2-yl)oxy)piperidin-1-yl)phenyl)-N^4,N^4-dimethylbenzene-1,4-disulfonamide]: less than 1 µM.
Next, `CC(C)(C)CC(=O)N1CCN(c2ccccc2NS(=O)(=O)c2ccc(C(F)(F)F)cc2)CC1` [Example 42, N-(2-(4-(3,3-dimethylbutanoyl)piperazin-1-yl)phenyl)-4-(trifluoromethyl)benzenesulfonamide]: more than 3.16 µM; `CN(C)S(=O)(=O)c1ccc(C(=O)N(c2ccccc2N2CCC(Oc3ccccc3)CC2)C2CC2)cc1` [Example 5, N-cyclopropyl-4-(N,N-dimethylsulfamoyl)-N-(2-(4-phenoxypiperidin-1-yl)phenyl)benzamide]: more than 3.16 µM.
As for `CN(C)S(=O)(=O)c1ccc(S(=O)(=O)Nc2ccccc2N2CCC[C@@H](OCc3ccccc3)C2)cc1` (single isomer, unassigned) [Example 27], the figure is 1 to 3.16 µM; as for `CN(C)S(=O)(=O)c1ccc(S(=O)(=O)Nc2ccccc2N2CCC[C@H](Oc3ccccc3)C2)cc1` (single isomer, unassigned) [Example 29], more than 3.16 µM; as for `CN(C)S(=O)(=O)c1ccc(S(=O)(=O)Nc2ccccc2N2CCC[C@@H](Oc3ccccc3)C2)cc1` (single isomer, unassigned) [Example 30], 1 to 3.16 µM.
Take `CCS(=O)(=O)c1ccc(S(=O)(=O)Nc2cccc(F)c2N2CCC(Oc3ccccn3)CC2)cc1` [Example 15, 4-(ethylsulfonyl)-N-(3-fluoro-2-(4-(pyridin-2-yloxy)piperidin-1-yl)phenyl)benzenesulfonamide]: the EC50 was 1 to 3.16 µM.
Next, `Cc1ccc(S(=O)(=O)Nc2ccccc2N2CCN(C(=O)OC(C)(C)C)CC2)c(F)c1` [Example 18, tert-butyl 4-(2-((2-fluoro-4-methylphenyl)sulfonamido)phenyl)piperazine-1-carboxylate]: more than 3.16 µM; `CC(C)(C)OC(=O)N1CCN(c2ccccc2NS(=O)(=O)c2ccc(OC(F)(F)F)cc2)CC1` [Example 21, tert-butyl 4-(2-((4-(trifluoromethoxy)phenyl)sulfonamido)phenyl) piperazine-1-carboxylate]: more than 3.16 µM.
Next, `CN(C)S(=O)(=O)c1ccc(C(=O)N(c2cccc(F)c2N2CCC(Oc3ccccn3)CC2)C2CCC2)cc1` [Example 12, N-cyclobutyl-4-(N,N-dimethylsulfamoyl)-N-(3-fluoro-2-(4-(pyridin-2-yloxy)piperidin-1-yl)phenyl)benzamide]: more than 3.16 µM.
For `CN(C)S(=O)(=O)c1ccc(S(=O)(=O)Nc2ccccc2N2CCC[C@H](OCc3ccccc3)C2)cc1` (single isomer, unassigned) [Example 26], the EC50 is 1 to 3.16 µM.
Next, `Cc1ccc(N2CCC(Oc3ccccn3)CC2)c(N(C(=O)c2ccc(S(=O)(=O)N(C)C)cc2)C2CCCC2)c1` [Example 16, N-cyclopentyl-4-(N,N-dimethylsulfamoyl)-N-(5-methyl-2-(4-(pyridin-2-yloxy)piperidin-1-yl)phenyl)benzamide]: 1 to 3.16 µM; `CN(C)S(=O)(=O)c1ccc(S(=O)(=O)Nc2ccccc2N2CCC[C@@H](COc3ccccc3)C2)cc1` (single isomer, unassigned) [Example 36]: 1 to 3.16 µM.
As for `CN(C)S(=O)(=O)c1ccc(S(=O)(=O)Nc2ccccc2N2CCCCCCC2)cc1` [Example 24, N1-(2-(azocan-1-yl)phenyl)-N4,N4-dimethylbenzene-1,4-disulfonamide], the figure is 1 to 3.16 µM; as for `CN(C)S(=O)(=O)c1ccc(S(=O)(=O)Nc2cccc(F)c2N2CCC(C)(c3ccccc3)CC2)cc1` [Example 37, N^1-(3-fluoro-2-(4-methyl-4-phenylpiperidin-1-yl)phenyl)-N^4,N^4-dimethylbenzene-1,4 disulfonamide], less than 1 µM.
As for `Cc1ccc(S(=O)(=O)Nc2ccccc2N2CCN(C(=O)CC(C)(C)C)CC2)cc1C` [Example 41, N-(2-(4-(3,3-dimethylbutanoyl)piperazin-1-yl)phenyl)-3,4-dimethylbenzenesulfonamide], the figure is more than 3.16 µM; as for `CC(C)N(C(=O)c1ccc(S(=O)(=O)N(C)C)cc1)c1cccc(F)c1N1CCC(Oc2ccccn2)CC1` [Example 11, 4-(N,N-dimethylsulfamoyl)-N-(3-fluoro-2-(4-(pyridin-2-yloxy)piperidin-1-yl)phenyl)-N-isopropylbenzamide], more than 3.16 µM.
Take `CCCN(C(=O)c1ccc(S(=O)(=O)N(C)C)cc1)c1ccccc1N1CCC(Oc2ccccc2)CC1` [Example 4, 4-(N,N-dimethylsulfamoyl)-N-(2-(4-phenoxypiperidin-1-yl)phenyl)-N-propylbenzamide]: the EC50 was 1 to 3.16 µM.
As for `Cc1ccc(S(=O)(=O)Nc2ccccc2N2CCN(C(=O)Oc3ccccc3)CC2)cc1C` [Example 39, phenyl 4-(2-((3,4-dimethylphenyl)sulfonamido)phenyl) piperazine-1-carboxylate], the figure is more than 3.16 µM.
As for `CN(C)S(=O)(=O)c1ccc(S(=O)(=O)Nc2cccc(F)c2N2CCC(Oc3ccc(Cl)cn3)CC2)cc1` [Example 44, N^1-(2-(4-((5-chloropyridin-2-yl)oxy)piperidin-1-yl)-3-fluorophenyl)-N^4,N^4-dimethylbenzene-1,4-disulfonamide], the figure is less than 1 µM.
As for `CN(C(=O)c1ccc(S(=O)(=O)N(C)C)cc1)c1cccc(F)c1N1CCC(Oc2ccccn2)CC1` [Example 9, 4-(N,N-dimethylsulfamoyl)-N-(3-fluoro-2-(4-(pyridin-2-yloxy)piperidin-1-yl)phenyl)-N-methylbenzamide], the figure is more than 3.16 µM.
For the molecule `CN(C)S(=O)(=O)c1ccc(S(=O)(=O)Nc2ccccc2N2CCC[C@H](COc3ccccc3)C2)cc1` (single isomer, unassigned) [Example 35], the EC50 was 1 to 3.16 µM.

Source of the values: US20240254083A1, “HETEROCYCLIC TRPML1 AGONISTS AND USES THEREOF” (Libra Therapeutics, Inc., priority 2021, published 2024).
